In patent US20130310344A1, “N-ACYLSULFONAMIDE APOPTOSIS PROMOTERS” (ASTRAZENECA AB, priority 2010, published 2013):
Where a name gives a salt, the structure may show the parent alone.

What was measured:
Bcl-XL = biological target: T1, Bcl-XL (Homo sapiens, UniProt Q07817); experiment: Bcl-XL FP assay (competitive fluorescence polarization binding assay, FITC-Bim BH-3 peptide tracer); settings: C-terminal 6×HIS tagged Bcl-XL (aa 1-209), 0.8 nM; 2 nM FITC-Bim peptide tracer
T1 construct: a C-terminal 6×HIS tagged Bcl-XL (aa 1-209); 6xHis (C)
Text: (§1) Bcl-xL and Bcl-2 FP binding affinity of compound(s) of Formulae (I), (I-a), (I-b), (I-c), (I-d) and/or (I-e) may be determined using a variety of known methods. One such assay is a sensitive and quantitative in vitro binding assay using fluorescence polarization (“FP”) described by Wang, J.-L.; Zhang, Z-J.; Choksi, S.; Sjam. S.; Lu, Z.; Croce, C. M.; Alnemri, E. S.; Komgold, R.; Huang, Z. Cell permeable Bcl-2 binding peptides: a chemical approach to apoptosis induction in tumor cells. Cancer Res. 2000, 60, 1498-1502).
(§2) Additionally, the binding affinity of compound(s) of Formulae (I), (I-a), (I-b), (I-c), (I-d) and/or (I-e) to Bcl-2 protein in vitro was determined by a competitive binding assay based on fluorescence polarization. For example, fluorescence polarization (“FP”) assays may be developed using a c-terminal 6×HIS tagged Bcl-2 (aa 1-204) and a C-terminal 6×HIS tagged Bcl-XL (aa 1-209). […] Dilutions of either Bcl-2 (1.3 nM) or Bcl-XL (0.8 nM) may be added to serial dilutions of antagonist and incubated for one hour prior to the addition of 2 nM of fluorescent peptide tracer (Anaspec, Fremont, Calif.) in the assay buffer. Final assay buffer conditions may be 20 mM HEPES, pH 7.5, 1 mM DTT, 0.005% Tween-20 and 50 mM NaCl. Samples may be read after 20-minute incubation. Fluorescence polarization values may be plotted as a function of the antagonist concentration.

Bcl-2 = biological target: T2, Bcl-2 (Homo sapiens, UniProt P10415); experiment: Bcl-2 FP assay (competitive fluorescence polarization binding assay, FITC-Bim BH-3 peptide tracer); settings: c-terminal 6×HIS tagged Bcl-2 (aa 1-204), 1.3 nM; 2 nM FITC-Bim peptide tracer
T2 construct: a c-terminal 6×HIS tagged Bcl-2 (aa 1-204); 6xHis (C)
Text: as §1, §2

T1 sequence (Q07817 1-209): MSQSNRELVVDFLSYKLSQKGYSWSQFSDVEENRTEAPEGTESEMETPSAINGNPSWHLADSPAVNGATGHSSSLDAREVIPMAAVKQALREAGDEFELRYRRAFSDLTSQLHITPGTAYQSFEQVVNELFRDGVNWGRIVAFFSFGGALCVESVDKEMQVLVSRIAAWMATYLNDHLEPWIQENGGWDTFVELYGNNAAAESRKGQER
T2 sequence (P10415 1-204): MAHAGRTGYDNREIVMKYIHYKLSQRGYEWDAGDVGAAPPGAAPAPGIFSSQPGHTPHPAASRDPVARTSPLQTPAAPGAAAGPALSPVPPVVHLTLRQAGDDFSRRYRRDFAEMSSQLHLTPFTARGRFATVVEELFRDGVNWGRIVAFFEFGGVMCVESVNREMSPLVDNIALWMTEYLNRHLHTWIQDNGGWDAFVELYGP

Compound | IC50 (Bcl-XL) | IC50 (Bcl-2)
4-(4-((R)-(4′-chlorobiphenyl-2-yl)(cyano)methyl)piperidin-1-yl)-N-(4-((R)-4-morpholino-1-(phenylthio)butan-2-ylamino)-3-(trifluoromethylsulfonyl)phenylsulfonyl)benzamide and 4-(4-((S)-(4′-chlorobiphenyl-2-yl)(cyano)methyl)piperidin-1-yl)-N-(4-((R)-4-morpholino-1-(phenylthio)butan-2-ylamino)-3-(trifluoromethylsulfonyl)phenylsulfonyl)benzamide, mixture of diastereomers [Example 17] | 1 nM | 
O=C(NS(=O)(=O)c1ccc(N[C@H](CCN2CCN(CCO)CC2)CSc2ccccc2)c(S(=O)(=O)C(F)(F)F)c1)c1ccc(N2CCC([C@@H](O)c3ccccc3-c3ccc(Cl)cc3)CC2)cc1 [Example 1, 4-(4-((R)-(4′-chlorobiphenyl-2-yl)(hydroxy)methyl)piperidin-1-yl)-N-(4-((R)-4-(4-(2-hydroxyethyl)piperazin-1-yl)-1-(phenylthio)butan-2-ylamino)-3-(trifluoromethylsulfonyl)phenylsulfonyl)benzamide, formic acid salt] | 1 nM | < 1 nM
CN(C)CC[C@H](CSc1ccccc1)Nc1ccc(S(=O)(=O)NC(=O)c2ccc(N3CCC([C@@H](O)c4ccccc4-c4ccc(Cl)cc4)CC3)cc2)cc1[N+](=O)[O-] [Example 2, 4-(4-((R)-(4′-chlorobiphenyl-2-yl)(hydroxy)methyl)piperidin-1-yl)-N-(4-((R)-4-(dimethylamino)-1-(phenylthio)butan-2-ylamino)-3-nitrophenylsulfonyl)benzamide] | 1 nM | 0.3 nM
CN(CCO)CC[C@H](CSc1ccccc1)Nc1ccc(S(=O)(=O)NC(=O)c2ccc(N3CCC([C@@H](O)c4ccccc4-c4ccc(Cl)cc4)CC3)cc2)cc1S(=O)(=O)C(F)(F)F [Example 3, 4-(4-((R)-(4′-chlorobiphenyl-2-yl)(hydroxy)methyl)piperidin-1-yl)-N-(4-((R)-4-((2-hydroxyethyl)(methyl)amino)-1-(phenylthio)butan-2-ylamino)-3-(trifluoromethylsulfonyl)phenylsulfonyl)benzamide] | 1 nM | < 0.3 nM
CCN(CCO)CC[C@H](CSc1ccccc1)Nc1ccc(S(=O)(=O)NC(=O)c2ccc(N3CCC([C@@H](O)c4ccccc4-c4ccc(Cl)cc4)CC3)cc2)cc1S(=O)(=O)C(F)(F)F [Example 4, 4-(4-((R)-(4′-chlorobiphenyl-2-yl)(hydroxy)methyl)piperidin-1-yl)-N-(4-((R)-4-(ethyl(2-hydroxyethyl)amino)-1-(phenylthio)butan-2-ylamino)-3-(trifluoromethylsulfonyl)phenylsulfonyl)benzamide] | 0.8 nM | 0.5 nM
O=C(NS(=O)(=O)c1ccc(N[C@H](CCN2CCOC[C@H]2CO)CSc2ccccc2)c(S(=O)(=O)C(F)(F)F)c1)c1ccc(N2CCC([C@@H](O)c3ccccc3-c3ccc(Cl)cc3)CC2)cc1 [Example 24, 4-(4-((R)-(4′-chlorobiphenyl-2-yl)(hydroxy)methyl)piperidin-1-yl)-N-(4-((R)-4-((R)-3-(hydroxymethyl)morpholino)-1-(phenylthio)butan-2-ylamino)-3-(trifluoromethylsulfonyl)phenylsulfonyl)benzamide, formic acid salt] |  | 0.4 nM
O=C(NS(=O)(=O)c1ccc(N[C@H](CCN2CCOC[C@@H]2CO)CSc2ccccc2)c(S(=O)(=O)C(F)(F)F)c1)c1ccc(N2CCC([C@@H](O)c3ccccc3-c3ccc(Cl)cc3)CC2)cc1 [Example 25, 4-(4-((R)-(4′-chlorobiphenyl-2-yl)(hydroxy)methyl)piperidin-1-yl)-N-(4-((R)-4-((S)-3-(hydroxymethyl)morpholino)-1-(phenylthio)butan-2-ylamino)-3-(trifluoromethylsulfonyl)phenylsulfonyl)benzamide, hydrochloride salt] |  | 0.4 nM
